Laboratory results as given in US20230017786A1, “DEXTR[…] A DISEASE-MODIFYING TREATMENT FOR NEUROPSYCHIATRIC DISORDERS AND DISEASES” (priority 2020, published 2023).
Values joined by “and” are separate entries in the source; they are usually repeats but may differ in a detail not shown here. Identical values can stand only once. Counter-ions that a name gives are not always drawn.

Legend:
[1] = biological target: T1, human NMDA receptor GluN1-GluN2A (Homo sapiens, UniProt Q05586+Q12879); test: FLIPR calcium assay, test item effect on L-glutamate CRC, GluN1-GluN2A-CHO; assay type: cell-based
T1 construct: expressed in transfected cells; host or cells: CHO

[2] = biological target: T2, human NMDA receptor GluN1-GluN2B (Homo sapiens, UniProt Q05586+Q13224); test: cell-based; assay type: cell-based
T2 construct: expressed in transfected cells; host or cells: CHO

[3] = biological target: T3, human NMDA receptor GluN1-GluN2C (Homo sapiens, UniProt Q05586+Q14957); test: FLIPR calcium assay, test item effect on L-glutamate CRC, GluN1-GluN2C-CHO; assay type: cell-based
T3 construct: expressed in transfected cells; host or cells: CHO

[4] = biological target: T4, human NMDA receptor GluN1-GluN2D (Homo sapiens, UniProt O15399+Q05586); test: FLIPR calcium assay, test item effect on L-glutamate CRC, GluN1-GluN2D-CHO; assay type: cell-based
T4 construct: expressed in transfected cells; host or cells: CHO

[5] = tested on: diheteromeric human recombinant NMDAR containing GluN1 plus GluN2A, GluN2B, GluN2C or GluN2D; test: FLIPR calcium assay, statements for all four NMDAR subtypes together; assay type: cell-based; conditions: 6 test item concentrations
Excerpt: An operational equation for allosteric modulators (Leach K, Sexton P M and Christopoulos A, Allosteric GPCR modulators: taking advantage of permissive receptor pharmacology, Trends Pharmacol. Sci. 28: 382-389, 2007; Kenakin T P, Overview of receptor interaction of agonists and antagonists, Curr. Protoc. Pharmacol. Chapter 4: Unit 4.1, 2008, Kenakin T P, Biased signalling and allosteric machines: new vistas and challenges for drug discovery, Br. J. Pharmacol. 165: 1659-1669, 2012) was created in Prism 8 (GraphPad) software to estimate KB and a parameters for every test item, with the assumption that, as a pore blocker, every test item would be able to produce a compete blockade of agonist response, at sufficiently high concentration: […]

[6] = tested on: NMDA receptors of cultured rat cortical neurons; conditions: Mealing et al., 1999; cited from earlier work
[7] = biological target: T5, human GluN1-GluN2C NMDA receptor (Homo sapiens, UniProt Q05586+Q14957); test: Manual patch clamp trapping assay, hGluN1/hGluN2C-CHO cells; conditions: test item 1 μM, hydrochloride
Excerpt: Manual patch clamp recordings occurred at −70 mV.
hGluN1/hGluN2C-CHO cells grown on poly-D-lysine coated glass coverslips were studied by manual patch clamp whole cell recording.
(§1) Recordings occurred at −70 mV fixed voltage equal to holding potential.

[8] = biological target: T5, human GluN1-GluN2C NMDA receptor; test: Manual patch clamp on-/off-rate assay, hGluN1/hGluN2C-CHO cells; conditions: for % Current (mean ± SEM): 10/10 μM L-glutamate/glycine induced current, hGluN1/hGluN2C-CHO; for Tau-off: continuous 10/10 μM L-glutamate/glycine; for I2 (% current): current after 50 seconds removal of test item; for Tau-on: 10/10 μM L-glutamate/glycine; for % block of 10/10 μM L-glutamate/glycine induced current: −70 mV, no Mg2+
Experimental: Manual patch clamp recordings occurred at −70 mV. […] Tau-on and tau-off were estimated by curve fitting to first order exponential equations.
Test items were evaluated using a manual patch clamp whole-cell recording methodology, using HEKA Elektronik Patchmaster system, coupled to BioLogic RSC-160 perfusion device (BioLogic, Seyssinet-Pariset, France).
hGluN1/hGluN2C-CHO cells grown on poly-D-lysine coated glass coverslips were studied by manual patch clamp whole cell recording. Extracellular and intracellular solutions for patch clamp recording had following composition:
as §1
Test item on-/off-rates were measured by curve fitting the development of their induced current block, or relief from it.
At least n=10 independent cells were analysed. […] Time constant of onset (tau-on, seconds) and offset (tau-off, seconds) of test item inhibition of glutamate induced current were calculated using first order exponential equations as shown below:
I(t)=I1+(I2−I1)×(1−e^−t/τoff)

[9] = highest affinity for a NMDAR subtype = 100%
[10] = operational analysis for allosteric modulators
[11] = 10 μM test item, offset fitting

T2 sequence (Q13224 27-1484, other chains not shown): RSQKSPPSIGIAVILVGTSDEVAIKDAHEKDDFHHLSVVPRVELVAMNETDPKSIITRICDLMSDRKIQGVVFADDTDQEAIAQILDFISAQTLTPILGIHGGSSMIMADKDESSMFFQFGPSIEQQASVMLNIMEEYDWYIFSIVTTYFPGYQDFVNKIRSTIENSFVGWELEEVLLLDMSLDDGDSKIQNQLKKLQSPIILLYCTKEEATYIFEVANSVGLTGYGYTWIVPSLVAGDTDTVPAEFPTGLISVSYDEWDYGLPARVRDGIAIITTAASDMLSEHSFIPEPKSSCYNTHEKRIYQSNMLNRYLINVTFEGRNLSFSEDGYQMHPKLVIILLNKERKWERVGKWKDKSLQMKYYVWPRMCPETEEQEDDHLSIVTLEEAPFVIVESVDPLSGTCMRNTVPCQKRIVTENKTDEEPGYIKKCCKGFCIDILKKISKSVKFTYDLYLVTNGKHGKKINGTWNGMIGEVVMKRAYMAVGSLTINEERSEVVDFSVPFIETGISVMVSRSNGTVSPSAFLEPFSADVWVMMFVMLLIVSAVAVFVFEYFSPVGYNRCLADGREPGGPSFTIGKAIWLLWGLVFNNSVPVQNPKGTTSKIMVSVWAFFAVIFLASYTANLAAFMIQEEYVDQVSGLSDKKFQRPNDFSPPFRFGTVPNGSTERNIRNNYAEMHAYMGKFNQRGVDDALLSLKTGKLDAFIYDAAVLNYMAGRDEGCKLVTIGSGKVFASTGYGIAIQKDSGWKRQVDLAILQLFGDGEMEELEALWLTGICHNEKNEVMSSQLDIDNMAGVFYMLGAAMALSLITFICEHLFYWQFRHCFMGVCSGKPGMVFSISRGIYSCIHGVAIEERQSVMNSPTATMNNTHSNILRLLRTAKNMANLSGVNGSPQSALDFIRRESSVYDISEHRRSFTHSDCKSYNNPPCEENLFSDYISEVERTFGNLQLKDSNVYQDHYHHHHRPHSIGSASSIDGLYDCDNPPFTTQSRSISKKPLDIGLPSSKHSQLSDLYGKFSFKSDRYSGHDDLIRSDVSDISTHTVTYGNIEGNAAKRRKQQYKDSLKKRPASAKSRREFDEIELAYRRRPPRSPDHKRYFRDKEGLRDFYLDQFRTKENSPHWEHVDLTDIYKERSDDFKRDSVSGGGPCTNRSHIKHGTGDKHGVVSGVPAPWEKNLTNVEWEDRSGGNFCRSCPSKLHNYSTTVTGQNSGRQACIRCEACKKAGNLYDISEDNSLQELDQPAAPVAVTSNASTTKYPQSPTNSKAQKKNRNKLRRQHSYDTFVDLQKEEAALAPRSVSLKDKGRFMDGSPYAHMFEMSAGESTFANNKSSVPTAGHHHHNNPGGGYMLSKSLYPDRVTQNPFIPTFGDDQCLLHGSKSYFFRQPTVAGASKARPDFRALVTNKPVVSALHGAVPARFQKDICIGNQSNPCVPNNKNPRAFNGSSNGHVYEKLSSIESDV
T4 sequence (O15399 28-1336, other chains not shown): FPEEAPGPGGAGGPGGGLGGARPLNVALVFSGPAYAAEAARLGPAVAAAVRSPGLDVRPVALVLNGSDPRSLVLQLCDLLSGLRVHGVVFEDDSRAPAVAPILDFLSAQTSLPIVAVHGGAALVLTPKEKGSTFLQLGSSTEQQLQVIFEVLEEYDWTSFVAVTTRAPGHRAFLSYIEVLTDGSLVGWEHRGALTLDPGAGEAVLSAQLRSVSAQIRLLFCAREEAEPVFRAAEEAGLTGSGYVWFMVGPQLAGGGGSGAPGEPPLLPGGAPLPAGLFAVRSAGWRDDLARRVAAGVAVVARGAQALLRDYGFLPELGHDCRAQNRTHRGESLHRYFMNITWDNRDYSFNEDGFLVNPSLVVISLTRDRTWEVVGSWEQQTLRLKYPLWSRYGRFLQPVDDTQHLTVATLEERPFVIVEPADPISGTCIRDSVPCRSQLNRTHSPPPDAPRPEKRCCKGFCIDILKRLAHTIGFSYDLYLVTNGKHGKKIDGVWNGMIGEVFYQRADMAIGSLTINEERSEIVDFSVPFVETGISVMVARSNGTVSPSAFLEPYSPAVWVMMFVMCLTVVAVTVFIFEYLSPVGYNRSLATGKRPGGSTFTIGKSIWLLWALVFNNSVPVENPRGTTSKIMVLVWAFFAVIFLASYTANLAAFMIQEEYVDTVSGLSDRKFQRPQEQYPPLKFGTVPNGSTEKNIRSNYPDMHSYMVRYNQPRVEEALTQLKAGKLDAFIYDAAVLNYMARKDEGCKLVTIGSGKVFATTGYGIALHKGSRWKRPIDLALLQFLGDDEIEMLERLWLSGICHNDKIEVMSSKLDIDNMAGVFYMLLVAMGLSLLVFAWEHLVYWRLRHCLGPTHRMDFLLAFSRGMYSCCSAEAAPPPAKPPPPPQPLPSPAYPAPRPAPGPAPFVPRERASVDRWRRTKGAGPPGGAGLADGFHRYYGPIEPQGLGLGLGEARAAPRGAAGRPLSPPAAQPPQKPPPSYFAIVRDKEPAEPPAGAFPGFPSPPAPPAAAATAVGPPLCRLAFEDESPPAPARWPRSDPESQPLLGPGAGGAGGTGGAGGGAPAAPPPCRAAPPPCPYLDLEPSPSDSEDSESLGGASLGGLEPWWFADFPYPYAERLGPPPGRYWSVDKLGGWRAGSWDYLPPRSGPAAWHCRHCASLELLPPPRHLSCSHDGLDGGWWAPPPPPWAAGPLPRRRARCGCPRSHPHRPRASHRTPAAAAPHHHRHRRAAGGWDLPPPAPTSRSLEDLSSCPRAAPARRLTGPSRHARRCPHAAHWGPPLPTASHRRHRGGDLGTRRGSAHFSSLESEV
T1 sequence (Q12879 23-1464, other chains not shown): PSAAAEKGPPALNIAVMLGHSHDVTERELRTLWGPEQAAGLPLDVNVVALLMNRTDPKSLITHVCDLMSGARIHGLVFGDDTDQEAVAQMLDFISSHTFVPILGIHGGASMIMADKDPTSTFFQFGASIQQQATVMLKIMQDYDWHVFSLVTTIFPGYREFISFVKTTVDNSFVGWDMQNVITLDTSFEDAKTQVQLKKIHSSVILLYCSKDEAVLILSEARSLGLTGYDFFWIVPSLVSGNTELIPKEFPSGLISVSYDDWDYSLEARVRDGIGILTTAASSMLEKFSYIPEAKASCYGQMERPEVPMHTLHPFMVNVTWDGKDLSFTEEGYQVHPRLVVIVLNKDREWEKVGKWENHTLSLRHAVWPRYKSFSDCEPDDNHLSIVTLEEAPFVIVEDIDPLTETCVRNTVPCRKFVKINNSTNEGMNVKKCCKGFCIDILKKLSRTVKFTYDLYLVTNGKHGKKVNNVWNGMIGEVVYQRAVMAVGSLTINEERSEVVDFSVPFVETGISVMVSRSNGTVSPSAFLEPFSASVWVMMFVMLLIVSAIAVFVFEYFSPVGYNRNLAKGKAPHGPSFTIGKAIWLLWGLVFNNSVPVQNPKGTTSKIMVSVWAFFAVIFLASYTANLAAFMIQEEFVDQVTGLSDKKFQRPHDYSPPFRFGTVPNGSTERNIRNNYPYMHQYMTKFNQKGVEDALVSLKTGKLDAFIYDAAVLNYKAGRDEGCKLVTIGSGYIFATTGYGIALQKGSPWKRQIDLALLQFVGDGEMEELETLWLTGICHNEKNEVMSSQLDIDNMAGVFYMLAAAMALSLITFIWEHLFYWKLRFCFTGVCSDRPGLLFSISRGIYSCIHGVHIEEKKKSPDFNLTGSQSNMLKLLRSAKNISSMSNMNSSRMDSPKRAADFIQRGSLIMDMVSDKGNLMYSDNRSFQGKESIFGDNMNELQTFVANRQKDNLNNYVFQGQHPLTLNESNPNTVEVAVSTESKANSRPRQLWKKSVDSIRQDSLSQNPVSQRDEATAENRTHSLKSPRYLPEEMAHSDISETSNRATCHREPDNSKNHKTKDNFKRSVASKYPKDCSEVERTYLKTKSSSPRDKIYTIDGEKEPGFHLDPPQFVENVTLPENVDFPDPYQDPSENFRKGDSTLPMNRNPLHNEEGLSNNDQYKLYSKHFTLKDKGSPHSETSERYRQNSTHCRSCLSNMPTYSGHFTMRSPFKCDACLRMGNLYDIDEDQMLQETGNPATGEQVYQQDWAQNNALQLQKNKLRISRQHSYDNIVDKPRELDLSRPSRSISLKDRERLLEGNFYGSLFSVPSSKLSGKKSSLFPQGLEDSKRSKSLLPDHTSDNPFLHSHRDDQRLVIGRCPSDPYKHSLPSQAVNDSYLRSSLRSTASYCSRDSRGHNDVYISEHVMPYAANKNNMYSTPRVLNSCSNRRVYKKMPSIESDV

## CNC1(c2ccccc2Cl)CCCCC1=O (racemic) [(±)-Ketamine, (±)-ketamine hydrochloride]
[1]
  Kb: 4.3 µM
[1]; [9]
  % affinity ratio: 11%
[1]; [10]
  α, estimated cooperativity term: 0.17
[1]; with test item 49 nM
  L-glutamate CRC HillSlope: 1.2
  L-glutamate CRC LogEC50: −6.5
[1]; with test item 195 nM
  L-glutamate CRC HillSlope: 1.2
  L-glutamate CRC LogEC50: −6.5
[1]; with test item 781 nM
  L-glutamate CRC HillSlope: 1.0
  L-glutamate CRC LogEC50: −6.4
[1]; with test item 3.1 μM
  L-glutamate CRC HillSlope: 1.1
  L-glutamate CRC LogEC50: −6.4
[1]; with test item 12.5 μM
  L-glutamate CRC HillSlope: 1.3
  L-glutamate CRC LogEC50: −6.4
[1]; with test item 50 μM
  L-glutamate CRC HillSlope: 1.9
  L-glutamate CRC LogEC50: −6.2
[2]
  % affinity ratio: 42%
  Kb: 1.1 µM
  α, estimated cooperativity term: 0.14
[2]; hydrochloride
  L-glutamate CRC HillSlope: 2.0 and 1.4 and 1.1 and 1.2
[3]
  Kb: 0.46 µM
[3]; from the FLIPR study (Example 1)
  potency with respect to dextromethadone: ~10 fold
[3]; [9]
  % affinity ratio: 100%
[3]; [10]
  α, estimated cooperativity term: 0.13
[3]; with test item 49 nM
  L-glutamate CRC HillSlope: 1.5
  L-glutamate CRC LogEC50: −6.9
[3]; with test item 195 nM
  L-glutamate CRC HillSlope: 1.5
  L-glutamate CRC LogEC50: −6.8
[3]; with test item 781 nM
  L-glutamate CRC HillSlope: 1.3
  L-glutamate CRC LogEC50: −6.6
[3]; with test item 3.1 μM
  L-glutamate CRC HillSlope: 1.2
  L-glutamate CRC LogEC50: −6.6
[3]; with test item 12.5 μM
  L-glutamate CRC HillSlope: 2.0
  L-glutamate CRC LogEC50: −6.7
[3]; with test item 50 μM
  L-glutamate CRC HillSlope: 2.5
  L-glutamate CRC LogEC50: −6.4
[4]
  Kb: 1.4 µM
[4]; [9]
  % affinity ratio: 33%
[4]; [10]
  α, estimated cooperativity term: 0.15
[4]; with test item 49 nM
  L-glutamate CRC HillSlope: 1.6
  L-glutamate CRC LogEC50: −7.4
[4]; with test item 195 nM
  L-glutamate CRC HillSlope: 1.5
  L-glutamate CRC LogEC50: −7.3
[4]; with test item 781 nM
  L-glutamate CRC HillSlope: 1.4
  L-glutamate CRC LogEC50: −7.2
[4]; with test item 3.1 μM
  L-glutamate CRC HillSlope: 1.8
  L-glutamate CRC LogEC50: −7.1
[4]; with test item 12.5 μM
  L-glutamate CRC HillSlope: 1.6
  L-glutamate CRC LogEC50: −6.9
[4]; with test item 50 μM
  L-glutamate CRC HillSlope: 2.0
  L-glutamate CRC LogEC50: −6.7
[5]
  profile on L-glutamate CRC: insurmountable profile
[6]
  trapping: 86.0%
[7]
  Block trapped (BT), trapping: 86.7%
[7]; listed as (±)-ketamine
  Block (B) of 10/10 μM L-glutamate/glycine-evoked currents: 74.0%±1.2% and 74.0%
  Block trapped (BT), trapping: 86.7%±1.8% and 86.7%
  Residual block (BR): 64.1%±1.3% and 64.1%
[8]; 0.3 μM test item
  % Current (mean ± SEM): 44.2 ± 3.0%
[8]; 1 μM test item
  % Current (mean ± SEM): 74.6 ± 2.2%
[8]; 1 μM test item, offset fitting
  I1 (% current): 28.5 % current
  Tau-off: 151.0 s
  I2 (% current): 95.5 % current
[8]; 1 μM test item, onset fitting
  Tau-on: 47.1 s
[8]; 1 μM test item, onset fitting, current after 30 seconds application of test item
  I1 (% current): 28.7 % current
[8]; 3 μM test item
  % Current (mean ± SEM): 89.7 ± 0.6%
[8]; [11]
  I1 (% current): 4.9 % current
  Tau-off: 163.2 s
  I2 (% current): 102.9 % current
[8]; 10 μM test item, onset fitting
  Tau-on: 9.9 s
[8]; 10 μM test item, onset fitting, current after 30 seconds application of test item
  I1 (% current): 3.6 % current
[8]; test item 0.3 μM, hydrochloride
  % block of 10/10 μM L-glutamate/glycine induced current: 44% and 44.2%±3.0% and 44.2%
[8]; test item 1 μM
  tau-off, mean of single trace fittings: 151.7 ± 6.3 s
  tau-on: 47.1 s
  tau-on, average of single trace fittings: 47.3 ± 1.4 s
[8]; test item 1 μM, hydrochloride
  tau-off: 151 s
  % block of 10/10 μM L-glutamate/glycine induced current: 74.6%±2.2% and 75% and 74.6%
[8]; test item 1 μM, listed as (±)-ketamine, hydrochloride
  tau-off: 151.0 s
[8]; test item 3 μM, hydrochloride
  % block of 10/10 μM L-glutamate/glycine induced current: 90% and 89.7%±0.6% and 89.7%
[8]; test item 10 μM
  tau-off: 163.2 s
  tau-on: 9.9 s
[8]; test item 10 μM, hydrochloride
  % block of 10/10 μM L-glutamate/glycine induced current: 97.2%±0.3% and 97% and 97.2%
